Source: article PMC8578332 (Scientific Reports, 2021)
Where a SMILES comes first, the peptide text is derived from it. Bridges are numbered along the chain shown (N, C = ends).

biological target: human α7-containing nAChRs (Homo sapiens, UniProt P36544); assay: cell-based; format: cell-based; conditions: not given
Sequence (P36544 23-502 limits assumed): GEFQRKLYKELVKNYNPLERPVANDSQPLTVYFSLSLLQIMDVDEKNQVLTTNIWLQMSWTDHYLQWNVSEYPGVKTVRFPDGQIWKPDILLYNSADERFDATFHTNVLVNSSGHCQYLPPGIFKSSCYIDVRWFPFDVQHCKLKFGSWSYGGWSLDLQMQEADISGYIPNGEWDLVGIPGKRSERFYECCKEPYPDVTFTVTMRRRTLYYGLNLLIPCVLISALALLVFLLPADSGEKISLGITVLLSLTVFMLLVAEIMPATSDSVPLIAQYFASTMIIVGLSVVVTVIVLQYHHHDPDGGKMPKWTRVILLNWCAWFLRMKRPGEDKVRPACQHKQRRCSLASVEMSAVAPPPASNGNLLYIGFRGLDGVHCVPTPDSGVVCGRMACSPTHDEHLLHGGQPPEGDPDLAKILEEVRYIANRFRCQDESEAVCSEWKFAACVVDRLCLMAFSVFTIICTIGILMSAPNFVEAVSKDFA

Q: How did the IC50 turn out when `CC(C)C[C@@H]1NC(=O)[C@H](CCCNC(=N)N)NC(=O)[C@@H]2CSSC[C@H](NC(=O)[C@@H](N)CO)C(=O)N[C@@H](CSSC[C@@H](C(=O)N[C@H](C(N)=O)C(C)C)NC(=O)[C@@H]3CCCN3C(=O)[C@H](Cc3c[nH]cn3)NC(=O)[C@H](CC(N)=O)NC1=O)C(=O)N[C@@H](C)C(=O)N[C@@H](CCCNC(=N)N)C(=O)N[C@@H](CC(N)=O)C(=O)N1CCC[C@H]1C(=O)N[C@@H](C)C(=O)N2` [gAusIA [H11L]] (H-SCCARNPACRLNHPCV-NH2; disulfide 2-9, 3-15) was run?
A: > 100 µM

Q: What about the “antagonistic activity / potency at α7-containing nAChRs in words” value of the same compound?
A: inactive

Q: `CC(C)[C@H](NC(=O)[C@@H]1CSSC[C@@H]2NC(=O)[C@@H](NC(=O)[C@@H](N)CO)CSSC[C@H](NC(=O)[C@H](C)NC(=O)[C@H](C)NC(=O)[C@H](CC(N)=O)NC(=O)[C@H](CCCNC(=N)N)NC(=O)[C@H](C)NC2=O)C(=O)N[C@@H](CCCNC(=N)N)C(=O)N[C@@H](Cc2c[nH]cn2)C(=O)N[C@@H](CC(N)=O)C(=O)N[C@@H](Cc2c[nH]cn2)C(=O)N2CCC[C@H]2C(=O)N1)C(N)=O` [gAusIA [P7A]] (H-SCCARNAACRHNHPCV-NH2; disulfide 2-9, 3-15) was tested. Which IC50 did it give?
A: > 100 µM

Q: `CC(C)[C@H](NC(=O)[C@@H]1CSSC[C@H](NC(=O)[C@@H](N)CO)C(=O)N[C@H]2CSSC[C@H](NC(=O)[C@H](C)NC(=O)[C@H](C)NC(=O)[C@H](CC(N)=O)NC(=O)[C@H](CCCNC(=N)N)NC(=O)[C@H](C)NC2=O)C(=O)N[C@@H](CCCNC(=N)N)C(=O)N[C@@H](Cc2c[nH]cn2)C(=O)N[C@@H](CC(N)=O)C(=O)N[C@@H](Cc2c[nH]cn2)C(=O)N2CCC[C@H]2C(=O)N1)C(N)=O` [rAusIA [P7A]] (H-SCCARNAACRHNHPCV-NH2; disulfide 2-15, 3-9) was tested. Which IC50 did it give?
A: > 100 µM

Q: `CC(C)[C@H](NC(=O)[C@@H]1CSSC[C@@H]2NC(=O)[C@@H](NC(=O)[C@@H](N)CO)CSSC[C@H](NC(=O)[C@H](C)NC(=O)[C@@H]3CCCN3C(=O)[C@H](CC(N)=O)NC(=O)[C@H](C)NC(=O)[C@H](C)NC2=O)C(=O)N[C@@H](CCCNC(=N)N)C(=O)N[C@@H](Cc2c[nH]cn2)C(=O)N[C@@H](CC(N)=O)C(=O)N[C@@H](Cc2c[nH]cn2)C(=O)N2CCC[C@H]2C(=O)N1)C(N)=O` [gAusIA [R5A]] (H-SCCAANPACRHNHPCV-NH2; disulfide 2-9, 3-15) was tested. Which IC50 did it give?
A: > 100 µM

Q: For `CC(C)[C@H](NC(=O)[C@@H]1CSSC[C@H](NC(=O)[C@@H](N)CO)C(=O)N[C@H]2CSSC[C@H](NC(=O)[C@H](C)NC(=O)[C@@H]3CCCN3C(=O)[C@H](CC(N)=O)NC(=O)[C@H](CCCNC(=N)N)NC(=O)[C@H](C)NC2=O)C(=O)N[C@@H](C)C(=O)N[C@@H](Cc2c[nH]cn2)C(=O)N[C@@H](CC(N)=O)C(=O)N[C@@H](Cc2c[nH]cn2)C(=O)N2CCC[C@H]2C(=O)N1)C(N)=O` [rAusIA [R10A]] (H-SCCARNPACAHNHPCV-NH2; disulfide 2-15, 3-9), which IC50 is on record?
A: > 100 µM

Q: `CC(C)[C@H](NC(=O)[C@@H]1CSSC[C@@H]2NC(=O)[C@@H](NC(=O)[C@@H](N)CO)CSSC[C@H](NC(=O)[C@H](C)NC(=O)[C@@H]3CCCN3C(=O)[C@H](CC(N)=O)NC(=O)[C@H](CCCNC(=N)N)NC(=O)[C@H](C)NC2=O)C(=O)N[C@@H](C)C(=O)N[C@@H](Cc2c[nH]cn2)C(=O)N[C@@H](CC(N)=O)C(=O)N[C@@H](Cc2c[nH]cn2)C(=O)N2CCC[C@H]2C(=O)N1)C(N)=O` [gAusIA [R10A]] (H-SCCARNPACAHNHPCV-NH2; disulfide 2-9, 3-15) was tested. Which IC50 did it give?
A: > 100 µM

Q: `CC(C)[C@H](NC(=O)[C@@H]1CSSC[C@@H]2NC(=O)[C@@H](NC(=O)CN)CSSC[C@H](NC(=O)[C@H](C)NC(=O)[C@@H]3CCCN3C(=O)[C@H](CC(N)=O)NC(=O)[C@H](CCCNC(=N)N)NC(=O)[C@H](C)NC2=O)C(=O)N[C@@H](CCCNC(=N)N)C(=O)N[C@@H](Cc2c[nH]cn2)C(=O)N[C@@H](CC(N)=O)C(=O)N[C@@H](Cc2c[nH]cn2)C(=O)N2CCC[C@H]2C(=O)N1)C(N)=O` [gAusIA [S1G]] (H-GCCARNPACRHNHPCV-NH2; disulfide 2-9, 3-15) was tested. Which “Ratio (IC50 ratio between gAusIA/rAusIA and its corresponding analogues)” value did it give?
A: 0.70

Q: What about the “antagonistic activity / potency at α7-containing nAChRs in words” value of the same compound?
A: comparable potency to gAusIA

Q: With `CC(C)[C@H](NC(=O)[C@@H]1CSSC[C@H](NC(=O)[C@@H](N)CO)C(=O)N[C@H]2CSSC[C@H](NC(=O)[C@H](C)NC(=O)[C@@H]3CCCN3C(=O)[C@H](CC(N)=O)NC(=O)[C@H](C)NC(=O)[C@H](C)NC2=O)C(=O)N[C@@H](CCCNC(=N)N)C(=O)N[C@@H](Cc2c[nH]cn2)C(=O)N[C@@H](CC(N)=O)C(=O)N[C@@H](Cc2c[nH]cn2)C(=O)N2CCC[C@H]2C(=O)N1)C(N)=O` [rAusIA [R5A]] (H-SCCAANPACRHNHPCV-NH2; disulfide 2-15, 3-9) as the compound, how does the IC50 read?
A: > 100 µM

same assay, conditions: SEM

Q: How did the IC50 turn out when `CC(C)[C@H](NC(=O)[C@@H]1CSSC[C@@H]2NC(=O)[C@@H](NC(=O)[C@@H](N)CO)CSSC[C@H](NC(=O)[C@H](C)NC(=O)[C@@H]3CCCN3C(=O)[C@H](CC(N)=O)NC(=O)[C@H](CCCNC(=N)N)NC(=O)[C@H](CO)NC2=O)C(=O)N[C@@H](CCCNC(=N)N)C(=O)N[C@@H](Cc2c[nH]cn2)C(=O)N[C@@H](CC(N)=O)C(=O)N[C@@H](Cc2c[nH]cn2)C(=O)N2CCC[C@H]2C(=O)N1)C(N)=O` [gAusIA [A4S]] (H-SCCSRNPACRHNHPCV-NH2; disulfide 2-9, 3-15) was run?
A: 70 ± 12.9 µM

Q: `CC[C@H](C)[C@@H]1NC(=O)[C@H](CC(N)=O)NC(=O)[C@@H]2CCCN2C(=O)[C@H](CC(N)=O)NC(=O)[C@H](CC(N)=O)NC(=O)[C@H](C(C)C)NC(=O)[C@H](CCCNC(=N)N)NC(=O)[C@@H]2CSSC[C@H](NC(=O)[C@@H](NC(=O)CNC(=O)[C@@H](N)CO)CSSC[C@@H](C(N)=O)NC1=O)C(=O)N[C@@H](C)C(=O)N[C@@H](CO)C(=O)N[C@@H](CC(N)=O)C(=O)N1CCC[C@H]1C(=O)N[C@@H](C)C(=O)N2` [rLsIA [∇A5]] (H-SGCCASNPACRVNNPNIC-NH2; disulfide 3-18, 4-10) was tested. Which IC50 did it give?
A: 57 ± 14.7 µM

Q: Which IC50 does the source give for `CC(C)C[C@@H]1NC(=O)[C@H](CCCNC(=N)N)NC(=O)[C@@H]2CSSC[C@H](NC(=O)[C@@H](NC(=O)[C@@H](N)CO)CSSC[C@@H](C(=O)N[C@H](C(N)=O)C(C)C)NC(=O)[C@@H]3CCCN3C(=O)[C@H](Cc3c[nH]cn3)NC(=O)[C@H](CC(N)=O)NC1=O)C(=O)N[C@@H](C)C(=O)N[C@@H](CCCNC(=N)N)C(=O)N[C@@H](CC(N)=O)C(=O)N1CCC[C@H]1C(=O)N[C@@H](C)C(=O)N2` [rAusIA [H11L]] (H-SCCARNPACRLNHPCV-NH2; disulfide 2-15, 3-9) here?
A: 30 ± 2.2 µM

Q: How did the IC50 turn out when `CC(C)[C@H](NC(=O)[C@@H]1CSSC[C@H](NC(=O)[C@@H](N)CO)C(=O)N[C@H]2CSSC[C@H](NC(=O)[C@H](C)NC(=O)[C@@H]3CCCN3C(=O)[C@H](CC(N)=O)NC(=O)[C@H](CO)NC2=O)C(=O)N[C@@H](CCCNC(=N)N)C(=O)N[C@@H](Cc2c[nH]cn2)C(=O)N[C@@H](CC(N)=O)C(=O)N[C@@H](Cc2c[nH]cn2)C(=O)N2CCC[C@H]2C(=O)N1)C(N)=O` [rAusIA [A4S ∆5]] (H-SCCSNPACRHNHPCV-NH2; disulfide 2-14, 3-8) was run?
A: 29 ± 1.1 µM

Q: `C[C@@H]1NC(=O)[C@@H]2CSSC[C@H](NC(=O)[C@H](C)NC(=O)[C@@H]3CCCN3C(=O)[C@H](CC(N)=O)NC(=O)[C@H](CCCNC(=N)N)NC1=O)C(=O)N[C@@H](CCCNC(=N)N)C(=O)N[C@@H](Cc1c[nH]cn1)C(=O)N[C@@H](CC(N)=O)C(=O)N[C@@H](Cc1c[nH]cn1)C(=O)N1CCC[C@H]1C(=O)N[C@H](C(N)=O)CSSC[C@H](NC(=O)[C@@H](N)CO)C(=O)N2` [rAusIA [∆16]] (H-SCCARNPACRHNHPC-NH2; disulfide 2-15, 3-9) was tested. Which IC50 did it give?
A: 60 ± 9.9 µM

Q: With `C[C@@H]1NC(=O)[C@@H]2CSSC[C@@H](C(N)=O)NC(=O)[C@@H]3CCCN3C(=O)[C@H](Cc3c[nH]cn3)NC(=O)[C@H](CC(N)=O)NC(=O)[C@H](Cc3c[nH]cn3)NC(=O)[C@H](CCCNC(=N)N)NC(=O)[C@H](CSSC[C@H](NC(=O)[C@@H](N)CO)C(=O)N2)NC(=O)[C@H](C)NC(=O)[C@@H]2CCCN2C(=O)[C@H](CC(N)=O)NC1=O` [gAusIA [∆5 ∆16]] (H-SCCANPACRHNHPC-NH2; disulfide 2-8, 3-14) as the compound, how does the IC50 read?
A: 0.241 ± 0.062 µM

Q: How did the IC50 turn out when `CC(C)[C@H](NC(=O)[C@@H]1CSSC[C@H](NC(=O)[C@@H](N)CO)C(=O)N[C@H]2CSSC[C@H](NC(=O)[C@H](C)NC(=O)[C@@H]3CCCN3C(=O)[C@H](CC(N)=O)NC(=O)[C@H](CCCNC(=N)N)NC(=O)[C@H](CO)NC2=O)C(=O)N[C@@H](CCCNC(=N)N)C(=O)N[C@@H](Cc2c[nH]cn2)C(=O)N[C@@H](CC(N)=O)C(=O)N[C@@H](Cc2c[nH]cn2)C(=O)N2CCC[C@H]2C(=O)N1)C(N)=O` [rAusIA [A4S]] (H-SCCSRNPACRHNHPCV-NH2; disulfide 2-15, 3-9) was run?
A: 32 ± 7.3 µM

Q: Which IC50 does the source give for `CC[C@H](C)[C@@H]1NC(=O)[C@H](CC(N)=O)NC(=O)[C@@H]2CCCN2C(=O)[C@H](CC(N)=O)NC(=O)[C@H](CC(N)=O)NC(=O)[C@H](C(C)C)NC(=O)[C@H](CCCNC(=N)N)NC(=O)[C@@H]2CSSC[C@H](NC(=O)[C@@H](NC(=O)CNC(=O)[C@@H](N)CO)CSSC[C@@H](C(N)=O)NC1=O)C(=O)N[C@@H](CO)C(=O)N[C@@H](CCCNC(=N)N)C(=O)N[C@@H](CC(N)=O)C(=O)N1CCC[C@H]1C(=O)N[C@@H](C)C(=O)N2` [rLsIA [∇R6]] (H-SGCCSRNPACRVNNPNIC-NH2; disulfide 3-18, 4-10) here?
A: 66 ± 4.1 µM

Q: With `CC[C@H](C)[C@@H]1NC(=O)[C@H](CC(N)=O)NC(=O)[C@@H]2CCCN2C(=O)[C@H](CC(N)=O)NC(=O)[C@H](CC(N)=O)NC(=O)[C@H](C(C)C)NC(=O)[C@H](CCCNC(=N)N)NC(=O)[C@@H]2CSSC[C@H](NC(=O)CNC(=O)[C@@H](N)CO)C(=O)N[C@@H](CSSC[C@@H](C(N)=O)NC1=O)C(=O)N[C@@H](C)C(=O)N[C@@H](CO)C(=O)N[C@@H](CC(N)=O)C(=O)N1CCC[C@H]1C(=O)N[C@@H](C)C(=O)N2` [gLsIA [∇A5]] (H-SGCCASNPACRVNNPNIC-NH2; disulfide 3-10, 4-18) as the compound, how does the IC50 read?
A: 48 ± 13.2 µM

Q: With `CC(C)[C@H](NC(=O)[C@@H]1CSSC[C@@H]2NC(=O)[C@@H](NC(=O)[C@@H](N)CO)CSSC[C@H](NC(=O)[C@H](C)NC(=O)[C@@H]3CCCN3C(=O)[C@H](CC(N)=O)NC(=O)[C@H](CCCNC(=N)N)NC2=O)C(=O)N[C@@H](CCCNC(=N)N)C(=O)N[C@@H](Cc2c[nH]cn2)C(=O)N[C@@H](CC(N)=O)C(=O)N[C@@H](Cc2c[nH]cn2)C(=O)N2CCC[C@H]2C(=O)N1)C(N)=O` [gAusIA [∆4]] (H-SCCRNPACRHNHPCV-NH2; disulfide 2-8, 3-14) as the compound, how does the IC50 read?
A: 1 ± 0.03 µM
